Assay results published in ChEMBL document CHEMBL2203270, “POMA analyses as new efficient bioinformatics' platform to predict and optimise bioactivity of synthesized 3a,4-dihydro-3H-indeno[1,2-c]pyrazole-2-carboxamide/carbothioamide analogues” (Bioorg Med Chem Lett, 2012).
In brackets after ≈: the same amount, converted by molar mass. Activity calls are given as the source filed them. The calls are words filed in the database; no cut-off is given here.

Legend:
[1] = Cytotoxicity against mock-infected human MT4 cells assessed as decrease in cell viability by MTT assay; format: cell-based
Mus musculus [2] = assay: Anticonvulsant activity in mouse assessed as protection against clonic seizure at 100 mg/kg, ip measured at 1 hr; format: functional
Mus musculus [3] = assay: Anticonvulsant activity in mouse assessed as protection against clonic seizure at 100 mg/kg, ip measured at 4 hr; format: functional, organism-based; design: dose 100 mg/kg
Mus musculus [4] = assay: Anticonvulsant activity in mouse assessed as protection against clonic seizure at 100 mg/kg, ip measured at 0.5 hr; format: functional
Mus musculus [5] = assay: Neurotoxicity in mouse assessed as minimal motor impairment at 100 mg/kg, ip measured at 2 hr by rotarod test; format: toxicity, organism-based; design: dose 100 mg/kg, route intraperitoneal; settings: in vivo
[6] = tested on: Human immunodeficiency virus 2; assay: Antiviral activity against HIV-2 ROD infected in MT4 cells assessed as inhibition of virus-induced cytopathicity; format: functional, organism-based; settings: Human immunodeficiency virus 2, ISOLATE ROD
Mus musculus [7] = assay: Neurotoxicity in mouse assessed as minimal motor impairment at 100 mg/kg, ip measured at 0.25 hr by rotarod test; format: toxicity, organism-based; design: dose 100 mg/kg, route intraperitoneal; settings: in vivo
Mus musculus [8] = assay: Neurotoxicity in mouse assessed as minimal motor impairment at 100 mg/kg, ip measured at 4 hr by rotarod test; format: toxicity, organism-based; design: dose 100 mg/kg, route intraperitoneal; settings: in vivo
[9] = tested on: Human immunodeficiency virus 1; assay: Antiviral activity against HIV-1 3B infected in MT4 cells assessed as protection against virus-induced cytopathicity relative to control; format: functional; settings: Human immunodeficiency virus 1, 3B
Mus musculus [10] = assay: Anticonvulsant activity in mouse assessed as protection against clonic seizure at 100 mg/kg, ip measured at 0.25 hr; format: functional
Mus musculus [11] = assay: Anticonvulsant activity in mouse assessed as protection against clonic seizure at 100 mg/kg, ip measured at 2 hr; format: functional, organism-based; design: dose 100 mg/kg
[12] = tested on: Human immunodeficiency virus 2; assay: Antiviral activity against HIV-2 ROD infected in MT4 cells assessed as protection against virus-induced cytopathicity relative to control; format: functional; settings: Human immunodeficiency virus 2, ISOLATE ROD
Mus musculus [13] = assay: Neurotoxicity in mouse assessed as minimal motor impairment at 100 mg/kg, ip measured at 1 hr by rotarod test; format: toxicity, organism-based; design: dose 100 mg/kg, route intraperitoneal; settings: in vivo
Mus musculus [14] = assay: Neurotoxicity in mouse assessed as minimal motor impairment at 100 mg/kg, ip measured at 0.5 hr by rotarod test; format: toxicity, organism-based; design: dose 100 mg/kg, route intraperitoneal; settings: in vivo
[15] = tested on: Human immunodeficiency virus 1; assay: Antiviral activity against HIV-1 3B infected in MT4 cells assessed as inhibition of virus-induced cytopathicity; format: functional, organism-based; settings: Human immunodeficiency virus 1, 3B
Escherichia coli = assay: Antimicrobial activity against Escherichia coli NCIM 5051 by broth dilution technique; format: functional
Candida albicans = assay: Antimicrobial activity against Candida albicans NCIM 3471 by broth dilution technique; format: functional
Staphylococcus aureus = assay: Antimicrobial activity against Staphylococcus aureus NCIM 2079 by broth dilution technique; format: functional
Aspergillus niger = assay: Antimicrobial activity against Aspergillus niger NCIM 1196 by broth dilution technique; format: functional
Pseudomonas aeruginosa = assay: Antimicrobial activity against Pseudomonas aeruginosa ATCC 10145 by broth dilution technique; format: functional
Bacillus subtilis = assay: Antimicrobial activity against Bacillus subtilis NCIM 2439 by broth dilution technique; format: functional

SMILES	CC50 [1] [µM]	Activity (Mus musculus [3])	Activity (Mus musculus [5])	IC50 [6] [µM]	Activity (Mus musculus [7])	Activity (Mus musculus [8])	Emax [9] [%]	Activity (Mus musculus [11])	Emax [12] [%]	Activity (Mus musculus [13])	Activity (Mus musculus [14])	IC50 [15] [µM]	MBC (Escherichia coli) [µg/mL]	MIC (Escherichia coli) [µg/mL]	MFC (Candida albicans) [µg/mL]	MIC (Candida albicans) [µg/mL]	MBC (Staphylococcus aureus) [µg/mL]	MIC (Staphylococcus aureus) [µg/mL]	MFC (Aspergillus niger) [µg/mL]	MIC (Aspergillus niger) [µg/mL]	further results
COc1cc2c(cc1OC)C1=NN(C(=O)Nc3ccc(Cl)cc3)C(c3ccc(F)cc3)C1C2 (stereo not drawn)	25.8	inactive	Non-toxic	> 25.8	Non-toxic	Non-toxic	2	inactive	2	Non-toxic	Non-toxic	> 25.8	–	–	–	–	–	–	–	–	Activity (Mus musculus [2]; route intraperitoneal): 75%; Activity (Mus musculus [4]; route intraperitoneal): 100%; Activity (Mus musculus [10]; route intraperitoneal): 100%
COc1cc2c(cc1OC)C1=NN(C(N)=O)C(c3ccccc3)C1C2 (stereo not drawn)	259	–	–	> 259	–	–	2	–	11	–	–	> 259	> 512	256 (≈ 759 µM)	> 512	128 (≈ 379 µM)	> 512	256 (≈ 759 µM)	> 512	256 (≈ 759 µM)	MBC (Pseudomonas aeruginosa): > 512 µg/mL; MIC (Pseudomonas aeruginosa): 256 µg/mL (≈ 759 µM); MBC (Bacillus subtilis): > 512 µg/mL; MIC (Bacillus subtilis): 256 µg/mL (≈ 759 µM)
COc1cc2c(cc1OC)C1=NN(C(=O)Nc3ccc(F)c(Cl)c3)C(c3ccccc3Cl)C1C2 (stereo not drawn)	11.8	inactive	Non-toxic	> 11.8	Non-toxic	Non-toxic	5	inactive	1	Toxic	Non-toxic	> 11.8	–	–	–	–	–	–	–	–	Activity (Mus musculus [2]): inactive; Activity (Mus musculus [4]): inactive; Activity (Mus musculus [10]; route intraperitoneal): 75%
COc1cc2c(cc1OC)C1=NN(C(N)=S)C(c3ccccc3Cl)C1C2 (stereo not drawn)	6.87	–	–	> 6.87	–	–	0	–	1	–	–	> 6.87	128 (≈ 330 µM)	8 (≈ 20.6 µM)	> 512	64 (≈ 165 µM)	128 (≈ 330 µM)	16 (≈ 41.2 µM)	> 512	128 (≈ 330 µM)	MBC (Pseudomonas aeruginosa): 256 µg/mL (≈ 660 µM); MIC (Pseudomonas aeruginosa): 16 µg/mL (≈ 41.2 µM); MBC (Bacillus subtilis): 128 µg/mL (≈ 330 µM); MIC (Bacillus subtilis): 16 µg/mL (≈ 41.2 µM)
COc1cc2c(cc1OC)C1=NN(C(N)=S)C(c3ccncc3)C1C2 (stereo not drawn)	36.9	–	–	> 36.9	–	–	2	–	3	–	–	> 36.9	> 512	32 (≈ 90.3 µM)	> 512	128 (≈ 361 µM)	> 512	32 (≈ 90.3 µM)	> 512	128 (≈ 361 µM)	MBC (Pseudomonas aeruginosa): > 512 µg/mL; MIC (Pseudomonas aeruginosa): 32 µg/mL (≈ 90.3 µM); MBC (Bacillus subtilis): > 512 µg/mL; MIC (Bacillus subtilis): 32 µg/mL (≈ 90.3 µM)
COc1cc2c(cc1OC)C1=NN(C(=O)Nc3ccc(F)c(Cl)c3)C(c3ccccc3)C1C2 (stereo not drawn)	35.8	inactive	Non-toxic	> 35.8	Non-toxic	Non-toxic	7	inactive	10	Non-toxic	Non-toxic	> 35.8	–	–	–	–	–	–	–	–	Activity (Mus musculus [2]): inactive; Activity (Mus musculus [4]): inactive; Activity (Mus musculus [10]; route intraperitoneal): 50%
COc1cc2c(cc1OC)C1=NN(C(=O)Nc3ccc(Cl)cc3)C(c3ccccc3Cl)C1C2 (stereo not drawn)	22.9	inactive	Non-toxic	> 22.9	Non-toxic	Non-toxic	2	inactive	2	Non-toxic	Non-toxic	> 22.9	–	–	–	–	–	–	–	–	Activity (Mus musculus [2]; route intraperitoneal): 50%; Activity (Mus musculus [4]; route intraperitoneal): 75%; Activity (Mus musculus [10]): inactive
COc1cc2c(cc1OC)C1=NN(C(N)=S)C(c3ccc(F)cc3)C1C2 (stereo not drawn)	39.9	–	–	> 39.9	–	–	5	–	9	–	–	> 39.9	8 (≈ 21.5 µM)	4 (≈ 10.8 µM)	> 512	32 (≈ 86.2 µM)	8 (≈ 21.5 µM)	4 (≈ 10.8 µM)	> 512	64 (≈ 172 µM)	MBC (Pseudomonas aeruginosa): 8 µg/mL (≈ 21.5 µM); MIC (Pseudomonas aeruginosa): 4 µg/mL (≈ 10.8 µM); MBC (Bacillus subtilis): 8 µg/mL (≈ 21.5 µM); MIC (Bacillus subtilis): 4 µg/mL (≈ 10.8 µM)
